Tested on: patients with stable coronary artery disease (CAD)
Test: PET/CT myocardial perfusion imaging in patients with stable CAD, compared with 99mTc Sestamibi SPECT and CTA
Type: in vivo, human
Settings: for detecting areas of reversible myocardial perfusion: PET with FTPP vs SPECT with 99mTc Sestamibi, baseline and post-adenosine
Procedure: One of the objectives of this study: the PET image properties of FTPP as a myocardial perfusion agent were evaluated in patients with stable coronary artery disease (CAD).
Patients with stable CAD were included in a 3 day study protocol. Safety endpoints included vital signs, 12 lead ECG and clinical laboratory tests. Imaging was performed with Siemens Biograph 64 PET/CT scanner and imaging entailed a CT for positioning, attenuation measurement and evaluation of coronary artery anatomy (day-1). This was followed by baseline and post-adenosine SPECT imaging with ^99mTc Sestamibi. On day 2, 10 mCi of FTPP was administered followed by a second 10 mCi dose of FTPP and PET/CT imaging.

| SMILES | image resolution, stress PET vs stress MIBI SPECT (FIG. 2, person with chest pain) | stress images, detection of ischemia (FIG. 3, stress images) | detecting areas of reversible myocardial perfusion | extraction from blood (patients with stable CAD) | heart uptake over time (patients with stable CAD) | imaging window after injection (patients with stable CAD) [min] | target-to-background ratios (patients with stable CAD) | blood flow imaging properties (patients with stable CAD, preliminary findings) | safety (vital signs, 12 lead ECG, clinical laboratory tests) |
| --- | --- | --- | --- | --- | --- | --- | --- | --- | --- |
| Fc1ccc([P+](c2ccccc2)(c2ccccc2)c2ccccc2)cc1 [FTPP, 4-[^18F]Fluorophenyltriphenylphosphonium ion] | high resolution | confirming ischemia | similarly effective | rapid | stable | ≤ 30 | high | excellent | safe |
| [C-]#[N+]CC(C)(C)OC.[C-]#[N+]CC(C)(C)OC.[C-]#[N+]CC(C)(C)OC.[C-]#[N+]CC(C)(C)OC.[C-]#[N+]CC(C)(C)OC.[C-]#[N+]CC(C)(C)OC.[Tc] [^99mTc Sestamibi, reference compound] | – | – | similarly effective | – | – | – | – | – | – |
